Assay [1] addresses T1, hNav1.7 (Homo sapiens (Human), UniProt Q15858). Put plainly: Tritiated compound binding to membranes from cells heterologously expressing hNav1.7 and the β1 subunit (Nav1.7 LBA). The note with it: competitive binding vs [3H]compound, membranes with hNav1.7 and β1 subunit; read-out: Nav1.7 LBA EVO IC50. In a few lines:
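Membranes from cells expressing hNav1.7 with β1 were incubated at room temperature with a tritiated competitive Nav1.7 inhibitor plus test compound in 100 mM NaCl, 20 mM Tris pH 7.4, 0.01% BSA; nonspecific binding was set with 1 μM unlabeled compound. Incubation was 18 h with […] radioligand, or 3 h with […]. Bound ligand was filtered and counted, and IC50 came from a 4-parameter fit.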
Target sequence in this assay (Q15858 whole entry, looked up): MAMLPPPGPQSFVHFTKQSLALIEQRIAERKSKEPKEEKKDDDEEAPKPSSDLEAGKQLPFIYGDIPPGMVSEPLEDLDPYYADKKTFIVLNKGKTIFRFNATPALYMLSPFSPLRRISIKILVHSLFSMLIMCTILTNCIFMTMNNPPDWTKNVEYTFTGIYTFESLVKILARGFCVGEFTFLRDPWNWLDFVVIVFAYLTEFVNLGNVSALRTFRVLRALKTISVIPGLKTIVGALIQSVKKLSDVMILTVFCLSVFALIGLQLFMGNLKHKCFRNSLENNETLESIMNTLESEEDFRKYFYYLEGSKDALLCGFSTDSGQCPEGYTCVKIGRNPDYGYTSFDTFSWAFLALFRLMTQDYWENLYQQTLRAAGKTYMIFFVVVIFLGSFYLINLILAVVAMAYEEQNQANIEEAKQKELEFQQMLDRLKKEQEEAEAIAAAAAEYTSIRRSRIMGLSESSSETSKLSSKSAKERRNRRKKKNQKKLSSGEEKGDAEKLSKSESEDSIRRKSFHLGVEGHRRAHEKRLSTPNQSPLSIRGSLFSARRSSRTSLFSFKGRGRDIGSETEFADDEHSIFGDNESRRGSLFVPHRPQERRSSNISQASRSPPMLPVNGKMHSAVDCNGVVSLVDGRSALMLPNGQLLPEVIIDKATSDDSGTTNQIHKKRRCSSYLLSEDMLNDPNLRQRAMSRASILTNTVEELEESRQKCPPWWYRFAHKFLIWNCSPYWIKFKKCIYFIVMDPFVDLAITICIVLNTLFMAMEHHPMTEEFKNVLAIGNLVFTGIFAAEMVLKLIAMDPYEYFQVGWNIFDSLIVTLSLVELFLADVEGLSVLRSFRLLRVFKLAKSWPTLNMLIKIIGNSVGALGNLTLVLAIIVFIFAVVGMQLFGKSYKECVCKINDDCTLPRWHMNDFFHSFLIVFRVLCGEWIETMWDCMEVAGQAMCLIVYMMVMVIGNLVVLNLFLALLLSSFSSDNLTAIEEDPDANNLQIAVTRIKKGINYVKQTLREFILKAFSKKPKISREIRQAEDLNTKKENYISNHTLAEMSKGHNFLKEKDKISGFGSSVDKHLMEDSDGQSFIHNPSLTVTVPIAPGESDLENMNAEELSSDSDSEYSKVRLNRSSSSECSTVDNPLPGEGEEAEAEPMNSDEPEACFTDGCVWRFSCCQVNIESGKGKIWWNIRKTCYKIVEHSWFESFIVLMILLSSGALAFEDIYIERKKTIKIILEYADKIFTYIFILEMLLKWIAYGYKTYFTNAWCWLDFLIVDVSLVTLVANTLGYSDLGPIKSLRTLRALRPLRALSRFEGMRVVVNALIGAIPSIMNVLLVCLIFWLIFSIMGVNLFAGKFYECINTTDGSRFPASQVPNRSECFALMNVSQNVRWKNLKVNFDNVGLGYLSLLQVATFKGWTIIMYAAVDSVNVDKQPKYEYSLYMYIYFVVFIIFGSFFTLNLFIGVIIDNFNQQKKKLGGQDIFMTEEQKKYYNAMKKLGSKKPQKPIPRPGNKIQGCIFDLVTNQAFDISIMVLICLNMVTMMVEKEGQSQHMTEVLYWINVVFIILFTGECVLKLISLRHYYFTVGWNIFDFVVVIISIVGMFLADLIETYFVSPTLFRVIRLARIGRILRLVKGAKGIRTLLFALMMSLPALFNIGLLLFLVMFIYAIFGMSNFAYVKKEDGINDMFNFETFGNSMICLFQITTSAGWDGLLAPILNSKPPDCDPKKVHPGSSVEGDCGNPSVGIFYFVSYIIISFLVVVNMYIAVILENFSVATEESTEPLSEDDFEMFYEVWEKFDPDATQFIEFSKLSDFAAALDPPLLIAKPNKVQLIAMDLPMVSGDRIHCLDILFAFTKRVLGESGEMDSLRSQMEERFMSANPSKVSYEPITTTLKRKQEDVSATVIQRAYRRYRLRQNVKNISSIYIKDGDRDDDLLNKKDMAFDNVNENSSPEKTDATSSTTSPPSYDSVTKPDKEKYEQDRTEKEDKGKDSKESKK
Target sequence in this assay (Q07699 whole entry partner, looked up): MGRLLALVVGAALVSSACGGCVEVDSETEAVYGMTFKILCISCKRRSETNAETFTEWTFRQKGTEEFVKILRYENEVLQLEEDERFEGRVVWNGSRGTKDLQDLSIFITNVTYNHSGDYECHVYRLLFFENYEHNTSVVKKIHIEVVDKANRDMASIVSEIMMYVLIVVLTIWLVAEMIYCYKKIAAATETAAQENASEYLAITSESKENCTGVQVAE

Assay [2] addresses T1, hNav1.7. Put plainly: Electrophysiological assay (EP), voltage clamp on Syncropatch 384PE, CHO cells stably expressing Nav1.7. The assay is classed as cell-based. The note with it: holding potential −50 mV, 7.5 min compound incubation, read-out: EP_SP hNav1.7 EVO IC50. In a few lines: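 Whole-cell automated patch clamp was run on CHO cells stably expressing human Nav1.7 cDNA, with internal solution CsCl/EGTA pH 7.2, external solution 80 mM NaCl pH 7.4, and 0.1% Pluronic F-127. From a −50 mV holding potential: −10 mV for 10 ms, −150 mV for 20 ms, then −10 mV for 10 ms, where current was measured. Inhibition was taken after 7.5 min compound incubation, with TTX added for full block.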
Target sequence in this assay (Q15858 other isoform, or with tags, fused parts or gaps): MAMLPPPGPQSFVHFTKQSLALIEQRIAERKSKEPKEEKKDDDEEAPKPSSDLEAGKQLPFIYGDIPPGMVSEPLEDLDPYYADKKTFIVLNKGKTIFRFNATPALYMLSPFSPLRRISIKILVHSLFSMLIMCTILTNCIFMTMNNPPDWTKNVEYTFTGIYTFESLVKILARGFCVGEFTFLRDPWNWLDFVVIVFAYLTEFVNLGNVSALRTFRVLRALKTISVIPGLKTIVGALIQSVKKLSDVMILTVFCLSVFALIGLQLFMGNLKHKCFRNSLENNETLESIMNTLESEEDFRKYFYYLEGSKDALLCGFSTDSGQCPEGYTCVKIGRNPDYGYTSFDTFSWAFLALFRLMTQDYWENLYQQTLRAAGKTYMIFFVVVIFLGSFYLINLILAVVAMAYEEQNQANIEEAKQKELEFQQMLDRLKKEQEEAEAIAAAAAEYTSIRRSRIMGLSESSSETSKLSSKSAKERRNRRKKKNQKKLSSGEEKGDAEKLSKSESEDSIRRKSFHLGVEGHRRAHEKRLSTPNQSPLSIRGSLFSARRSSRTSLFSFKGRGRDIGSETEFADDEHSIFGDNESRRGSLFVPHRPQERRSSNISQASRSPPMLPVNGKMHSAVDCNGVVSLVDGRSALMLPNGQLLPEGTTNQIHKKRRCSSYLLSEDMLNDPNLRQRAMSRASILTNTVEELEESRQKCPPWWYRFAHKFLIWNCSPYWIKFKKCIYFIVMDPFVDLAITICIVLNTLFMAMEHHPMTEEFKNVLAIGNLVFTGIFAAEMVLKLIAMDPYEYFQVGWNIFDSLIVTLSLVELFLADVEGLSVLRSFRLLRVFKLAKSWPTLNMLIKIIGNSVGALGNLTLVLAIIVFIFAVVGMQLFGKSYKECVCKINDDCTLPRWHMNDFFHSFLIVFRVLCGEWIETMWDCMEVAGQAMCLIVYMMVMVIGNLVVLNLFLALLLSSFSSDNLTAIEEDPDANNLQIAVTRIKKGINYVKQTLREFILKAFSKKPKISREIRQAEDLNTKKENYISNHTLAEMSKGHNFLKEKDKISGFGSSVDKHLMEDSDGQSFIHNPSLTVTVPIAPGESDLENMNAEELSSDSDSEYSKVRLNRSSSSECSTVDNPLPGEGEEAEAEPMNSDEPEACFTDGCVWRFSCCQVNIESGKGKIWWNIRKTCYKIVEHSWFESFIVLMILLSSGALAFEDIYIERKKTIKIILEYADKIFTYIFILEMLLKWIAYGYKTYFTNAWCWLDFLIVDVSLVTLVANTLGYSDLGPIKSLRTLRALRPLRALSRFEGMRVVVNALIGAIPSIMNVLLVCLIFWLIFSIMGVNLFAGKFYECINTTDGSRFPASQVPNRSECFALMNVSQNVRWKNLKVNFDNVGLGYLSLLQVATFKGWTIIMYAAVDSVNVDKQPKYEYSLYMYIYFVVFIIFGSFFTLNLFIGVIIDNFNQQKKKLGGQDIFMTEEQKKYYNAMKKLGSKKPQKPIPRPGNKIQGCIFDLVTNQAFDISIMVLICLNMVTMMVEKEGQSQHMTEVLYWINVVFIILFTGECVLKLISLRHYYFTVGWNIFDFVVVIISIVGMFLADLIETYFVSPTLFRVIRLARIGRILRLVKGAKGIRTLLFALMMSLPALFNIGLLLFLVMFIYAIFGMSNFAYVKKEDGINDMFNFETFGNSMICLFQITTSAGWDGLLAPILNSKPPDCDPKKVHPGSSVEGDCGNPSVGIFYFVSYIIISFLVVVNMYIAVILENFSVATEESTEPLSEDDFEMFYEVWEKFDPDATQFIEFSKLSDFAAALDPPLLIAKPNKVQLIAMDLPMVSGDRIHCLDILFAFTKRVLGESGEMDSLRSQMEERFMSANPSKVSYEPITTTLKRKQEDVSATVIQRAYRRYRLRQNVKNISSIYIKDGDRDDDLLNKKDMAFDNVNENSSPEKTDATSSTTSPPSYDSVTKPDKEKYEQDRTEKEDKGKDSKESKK
In general terms: Patch clamp records ionic current or voltage across a cell membrane.

Where a name gives a salt, the structure may show the parent alone.

`CN(C)[C@H]1C[C@@H](c2cccc(OC(F)(F)F)c2)CC[C@@H]1Oc1cc(F)c(S(=O)(=O)Nc2ccncn2)cc1F` [Example 59, 4-(((1S,2S,4S)-2-(dimethylamino)-4-(3-(trifluoromethoxy)phenyl)cyclohexyl)oxy)-2,5-difluoro-N-(pyrimidin-4-yl)benzenesulfonamide formate]: the IC50 (usually the concentration that gives 50% inhibition) at hNav1.7 [1] came out at 32.6 nM; at hNav1.7 [2], 1.62 nM.

For the molecule `CN(C)[C@H]1C[C@@H](c2cccc(OC(F)F)c2)CC[C@@H]1Nc1cc(F)c(S(=O)(=O)Nc2ccncn2)cc1Cl` [Example 14, 5-Chloro-4-[[(1S,2S,4S)-4-[3-(difluoromethoxy)phenyl]-2-(dimethylamino)-cyclohexyl]amino]-2-fluoro-N-pyrimidin-4-yl-benzenesulfonamide], the figures for the IC50 on hNav1.7 [1] and on hNav1.7 [2] were 4.64 nM and 1.63 nM, respectively.

As for `O=S(=O)(Nc1ccncn1)c1cc(F)c(N[C@H]2CC[C@H](c3cc(F)cc(C(F)(F)F)c3)C[C@@H]2N2CCCC2)cc1F` [Example 85, 2,5-difluoro-4-(((1S,2S,4S)-4-(3-fluoro-5-(trifluoromethyl)phenyl)-2-(pyrrolidin-1-yl)cyclohexyl)-amino)-N-(pyrimidin-4-yl)benzenesulfonamide formate], the IC50 at hNav1.7 [1] worked out at 2.24 nM; on hNav1.7 [2] it was 0.494 nM.

`CN(C)CC(=O)N(C)[C@H]1C[C@@H](c2cccc(C(F)(F)F)c2)CC[C@@H]1Nc1cc(F)c(S(=O)(=O)Nc2ccncn2)cc1Cl` [Example 29, N-((1S,2S,5S)-2-((2-chloro-5-fluoro-4-(N-(pyrimidin-4-yl)sulfamoyl)phenyl)amino)-5-(3-(trifluoromethyl)phenyl)cyclohexyl)-2-(dimethylamino)-N-methylacetamide formate]: the results for the IC50 on hNav1.7 [1] and at hNav1.7 [2] were 3.56 nM and 2.25 nM, respectively.

On to `O=S(=O)(Nc1ccncn1)c1cc(F)c(N[C@H]2CC[C@H](c3cccc(C(F)(F)F)c3)C[C@@H]2N2CCCC2)cc1F` [Example 23, 2,5-difluoro-N-(pyrimidin-4-yl)-4-(((1S,2S,4S)-2-(pyrrolidin-1-yl)-4-(3-(trifluoromethyl)-phenyl)cyclohexyl)amino)benzenesulfonamide formate], for which the IC50 on hNav1.7 [1] was 1.21 nM; at hNav1.7 [2], 1.63 nM.

Consider `CN(C)[C@H]1C[C@@H](c2cccc(C(F)(F)F)c2)CC[C@@H]1Nc1cc(F)c(S(=O)(=O)Nc2ccncn2)cc1OC(F)F` [Example 5, 5-(Difluoromethoxy)-4-(((1S,2S,4S)-2-(dimethylamino)-4-(3-(trifluoromethyl)phenyl)-cyclohexyl)amino)-2-fluoro-N-(pyrimidin-4-yl)benzenesulfonamide formate], for which the figures for the IC50 on hNav1.7 [1] and at hNav1.7 [2] were 1.37 nM and 0.519 nM, respectively.

As to `CN(C)[C@H]1C[C@@H](c2cc(F)cc(Cl)c2)CC[C@@H]1Nc1cc(F)c(S(=O)(=O)Nc2ccncn2)cc1Cl` [Example 25, 5-chloro-4-(((1S,2S,4S)-4-(3-chloro-5-fluorophenyl)-2-(dimethylamino)cyclohexyl)amino)-2-fluoro-N-(pyrimidin-4-yl)benzenesulfonamide], the IC50 is 3.02 nM on hNav1.7 [1] and 2.31 nM on hNav1.7 [2].

Turning to `CN(C)[C@H]1C[C@@H](Cc2cccc(C(F)(F)F)c2)CC[C@@H]1Nc1cc(F)c(S(=O)(=O)Nc2ccncn2)cc1Cl` [Example 8, 5-chloro-4-(((1S,2S,4R)-2-(dimethylamino)-4-(3-(trifluoromethyl)benzyl)cyclohexyl)amino)-2-fluoro-N-(pyrimidin-4-yl)benzenesulfonamide], the IC50 on hNav1.7 [1] was found to be 6.45 nM; on hNav1.7 [2], 0.991 nM.

In the case of `CNCCN(C)[C@H]1C[C@@H](c2cccc(C(F)(F)F)c2)CC[C@@H]1Oc1cc(F)c(S(=O)(=O)Nc2ccncn2)cc1Cl` [Example 69, 5-chloro-2-fluoro-4-(((1S,2S,4S)-2-(methyl(2-(methylamino)ethyl)amino)-4-(3-(trifluoromethyl)phenyl)cyclohexyl)oxy)-N-(pyrimidin-4-yl)benzenesulfonamide formate], the IC50 on hNav1.7 [1] was 0.474 nM; on hNav1.7 [2], 0.173 nM.

`O=S(=O)(Nc1ccncn1)c1cc(F)c(O[C@H]2CC[C@H](c3cccc(C(F)(F)F)c3)C[C@@H]2N2CCCC2)cc1F` [Example 58, 2,5-difluoro-N-(pyrimidin-4-yl)-4-(((1S,2S,4S)-2-(pyrrolidin-1-yl)-4-(3-(trifluoromethyl)-phenyl)cyclohexyl)oxy)benzenesulfonamide]: the IC50 on hNav1.7 [1] came to 22.7 nM; on hNav1.7 [2], 2.73 nM.

As to `CN(C)[C@H]1C[C@@H](c2cccc(C(F)(F)F)c2Cl)CC[C@@H]1Oc1cc(F)c(S(=O)(=O)Nc2ccncn2)cc1Cl` [Example 92, 5-chloro-4-(((1S,2S,4S)-4-(2-chloro-3-(trifluoromethyl)phenyl)-2-(dimethylamino)-cyclohexyl)oxy)-2-fluoro-N-(pyrimidin-4-yl)benzenesulfonamide], the IC50 at hNav1.7 [1] was 55.7 nM; on hNav1.7 [2], 3.99 nM.

In the case of `Cc1cccc([C@H]2CC[C@H](Nc3cc(F)c(S(=O)(=O)Nc4ccncn4)cc3Cl)[C@@H](N(C)C)C2)c1` [Example 11, 5-Chloro-4-(((1S,2S,4S)-2-(dimethylamino)-4-(m-tolyl)cyclohexyl)amino)-2-fluoro-N-(pyrimidin-4-yl)benzenesulfonamide formate], the IC50 at hNav1.7 [1] was 7.57 nM; on hNav1.7 [2], 1.64 nM.

For `CN(C)[C@H]1C[C@@H](c2cccc(-n3cccn3)c2)CC[C@@H]1Nc1cc(F)c(S(=O)(=O)Nc2ccncn2)cc1Cl` [Example 20, 4-(((1S,2S,4S)-4-(3-(1H-pyrazol-1-yl)phenyl)-2-(dimethylamino)cyclohexyl)amino)-5-chloro-2-fluoro-N-(pyrimidin-4-yl)benzenesulfonamide formate], the IC50 was 9.43 nM on hNav1.7 [1] and 7.38 nM on hNav1.7 [2].

As for `CN1CC(N[C@H]2C[C@@H](c3cccc(C(F)(F)F)c3)CC[C@@H]2Oc2cc(F)c(S(=O)(=O)Nc3ccncn3)cc2Cl)C1` [Example 87, 5-chloro-2-fluoro-4-(((1S,2S,4S)-2-((1-methylazetidin-3-yl)amino)-4-(3-(trifluoromethyl)phenyl)-cyclohexyl)oxy)-N-(pyrimidin-4-yl)benzenesulfonamide], the IC50 at hNav1.7 [1] amounted to 7.94 nM; at hNav1.7 [2], 1.18 nM.

Regarding `CN(C)[C@H]1C[C@@H](c2ccc(Cl)c(C(F)(F)F)c2)CC[C@@H]1Nc1cc(F)c(S(=O)(=O)Nc2ccncn2)cc1Cl` [Example 7], the IC50 at hNav1.7 [1] turned out to be 0.52 nM; at hNav1.7 [2], 0.327 nM.

The values above are taken from US11028075B2, “Therapeutic compounds and methods of use thereof” (GENENTECH, INC., priority 2018, dated 2021).
